Data published in patent US7166579B2, “Prodrugs of DP IV-inhibitors” (Prosidion Limited, priority 1998, dated 2007).
Counter-ions that a name gives are not always drawn. Residues, ends and D or L forms follow the SMILES beside them.

How the values were obtained:
[1] = target: T1, human peptide transporter PepT1 (Homo sapiens, UniProt P46059); test: Affinity to PepT1 by displacement of radioactively labeled D-Phe-Ala; conditions: read-out: Binding constant, mM, to PepT1, relative to D-Phe-Ala
T1 construct: expressed in transfected cells
T1 sequence (P46059 1-708): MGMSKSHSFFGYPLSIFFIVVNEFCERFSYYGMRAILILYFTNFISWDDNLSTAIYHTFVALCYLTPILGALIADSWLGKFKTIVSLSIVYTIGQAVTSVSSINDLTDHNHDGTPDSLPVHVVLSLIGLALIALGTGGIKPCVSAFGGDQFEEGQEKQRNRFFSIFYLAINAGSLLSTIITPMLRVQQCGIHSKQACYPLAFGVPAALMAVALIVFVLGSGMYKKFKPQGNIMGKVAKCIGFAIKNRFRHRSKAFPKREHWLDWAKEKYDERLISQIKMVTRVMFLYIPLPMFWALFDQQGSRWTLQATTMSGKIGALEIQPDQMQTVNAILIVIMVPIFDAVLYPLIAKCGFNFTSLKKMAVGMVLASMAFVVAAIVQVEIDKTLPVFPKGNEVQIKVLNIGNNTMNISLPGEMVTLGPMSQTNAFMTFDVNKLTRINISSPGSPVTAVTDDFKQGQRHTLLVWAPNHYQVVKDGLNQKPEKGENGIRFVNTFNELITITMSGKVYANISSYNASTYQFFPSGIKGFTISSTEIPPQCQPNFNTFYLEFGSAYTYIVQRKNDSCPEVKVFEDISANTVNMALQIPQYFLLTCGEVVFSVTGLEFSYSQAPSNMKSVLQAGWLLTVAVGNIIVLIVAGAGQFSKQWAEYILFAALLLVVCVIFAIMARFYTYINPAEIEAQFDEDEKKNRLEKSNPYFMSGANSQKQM

[2] = target: T1, human peptide transporter PepT1; test: Electrophysiological transport analysis, hPEPT1 expressed in oocytes; assay type: cell-based
[3] = Blood glucose after oral glucose stimulation and oral administration (glucose tolerance); assay type: in vivo; conditions: Wistar rats; within 100 minutes of p.o. glucose stimulation; p.o. dose 2.5 um active substance/300 g of animal; control = 100
human blood-DP IV = target: T2, human blood-DP IV (Homo sapiens, UniProt P27487); test: Inhibition of DP IV in human whole blood by release of Ile-Thia from prodrugs; conditions: same concentration of prodrug, compared with Pro-Ile-Thia and Gly-Pro-Ile-Thia
T2 construct: from tissue; host or cells: human whole blood
Description: Release of the masked DP IV-inhibitor in the blood can be carried out, in the case of the examples selected, by DP IV itself (Pro-Pro-Ile-Thia=PPIThia, Gly-Pro-Ile-Thia=GPIThia) or by aminopeptidases (pGlu-Ile-Thia=pEIThia, Pro-Ile-Thia=PIThia) (FIG. 1).

T2 sequence (P27487 whole entry): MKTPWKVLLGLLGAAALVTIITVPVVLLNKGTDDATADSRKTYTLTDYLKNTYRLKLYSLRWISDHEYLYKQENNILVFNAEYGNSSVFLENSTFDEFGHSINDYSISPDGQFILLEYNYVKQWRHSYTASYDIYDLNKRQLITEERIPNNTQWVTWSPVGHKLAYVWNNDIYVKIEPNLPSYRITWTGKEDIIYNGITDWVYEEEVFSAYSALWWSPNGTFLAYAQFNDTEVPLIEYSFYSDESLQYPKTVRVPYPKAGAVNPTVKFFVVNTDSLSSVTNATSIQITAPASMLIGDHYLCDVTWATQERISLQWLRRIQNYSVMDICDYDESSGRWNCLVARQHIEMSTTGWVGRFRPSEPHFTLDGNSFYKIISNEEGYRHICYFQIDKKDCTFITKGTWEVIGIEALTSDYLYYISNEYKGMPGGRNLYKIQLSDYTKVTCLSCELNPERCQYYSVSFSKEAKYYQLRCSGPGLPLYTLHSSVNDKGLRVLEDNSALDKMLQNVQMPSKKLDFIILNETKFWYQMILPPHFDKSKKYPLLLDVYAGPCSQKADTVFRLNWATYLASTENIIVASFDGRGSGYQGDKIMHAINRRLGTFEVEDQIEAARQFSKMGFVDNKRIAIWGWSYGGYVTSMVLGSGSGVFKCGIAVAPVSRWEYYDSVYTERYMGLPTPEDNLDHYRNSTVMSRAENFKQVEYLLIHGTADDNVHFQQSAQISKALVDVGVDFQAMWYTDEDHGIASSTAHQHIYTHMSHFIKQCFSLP

Row | Compound | Ki [1] [mM] | Electrophys. transport analysis (hPEPT1 expr. in oocytes), flux % based on the Gly-Gln control (100%) [2] [%] | other results
1 | CC[C@H](C)[C@H](N)C(=O)N1CCC[C@H]1C(=O)N[C@H](C(=O)N1CCSC1)[C@@H](C)CC (as salt: HCl) [Ile-Pro-Ile-Thia] | – | – | melting point: 98 to 107 °C
2 | CC[C@H](C)[C@H](N)C(=O)N1CCC[C@H]1C(=O)N[C@H](C(=O)N1CCSC1)[C@@H](C)CC [Ile-Pro-Ile-Thia] | 0.61 | 44 | –
3 | NCCCCC(N)C(=O)NC(Cc1ccccc1)C(=O)N1CCCC1C(=O)O (stereo not drawn) [Lys-Phe-Pro] (H-Lys-Phe-Pro-OH; configuration not given here) | 0.19 | 10 | –
4 | NCCCCC(N)C(=O)NC(Cc1ccccc1)C(=O)O (stereo not shown) [Lys-phe] | 0.08 | 95 | –
5 | H-Gly-Pro-Ile-Thia/HC1 | – | – | % glucose level [3]: 57.1%
6 | H-Pro-Ile-Thia/HC1 | – | – | % glucose level [3]: 56.1%
7 | Pro-Pro-Ile-Thia | – | – | Release of the DP IV-inhibitor isoleucyl thiazolidide from the prodrug in the blood (time course of DP IV inhibition) (human blood-DP IV): more marked delay in the release of active substance
8 | pGlu-Ile-Thia | – | – | Release of the DP IV-inhibitor isoleucyl thiazolidide from the prodrug in the blood (time course of DP IV inhibition) (human blood-DP IV): more marked delay in the release of active substance

Now from value to compound, other results behind:

Row | Ki [1] [mM] | Electrophys. transport analysis (hPEPT1 expr. in oocytes), flux % based on the Gly-Gln control (100%) [2] [%] | Compound | other results
9 | 3.01 | 30 | NC(=O)CC(N)C(=O)N1CCCC1 (stereo not shown) [Asn-Pyr] | –
10 | 0.5 | 83 | NC(=O)CC(N)C(=O)N1CCSC1 (stereo not shown) [Asn-Thia] | –
11 | 5.34 | 7 | NC(Cc1c[nH]cn1)C(=O)N1CCCC1 (stereo not shown) [His-Pyr] | –
12 | 2.66 | 14 | CCC(C)C(N)C(=O)N1CCCC1 (stereo not shown) [Ile-Pyr] | –
13 | 0.98 | 25 | CCC(C)C(N)C(=O)N1CCSC1 (stereo not shown) [Ile-Thia, isoleucyl thiazolidide] | % glucose level [3]: 74.4%
